ChEMBL document CHEMBL5291721, “A preclinical secondary pharmacology resource illuminates target-adverse drug reaction associations of marketed drugs” (Nat Commun, 2023)

Key:
Motilin receptor = Motilin receptor (Homo sapiens, UniProt O43193)
Estrogen receptor = target: T1, Estrogen receptor (Homo sapiens, UniProt P03372)
T1 sequence (P03372 whole entry): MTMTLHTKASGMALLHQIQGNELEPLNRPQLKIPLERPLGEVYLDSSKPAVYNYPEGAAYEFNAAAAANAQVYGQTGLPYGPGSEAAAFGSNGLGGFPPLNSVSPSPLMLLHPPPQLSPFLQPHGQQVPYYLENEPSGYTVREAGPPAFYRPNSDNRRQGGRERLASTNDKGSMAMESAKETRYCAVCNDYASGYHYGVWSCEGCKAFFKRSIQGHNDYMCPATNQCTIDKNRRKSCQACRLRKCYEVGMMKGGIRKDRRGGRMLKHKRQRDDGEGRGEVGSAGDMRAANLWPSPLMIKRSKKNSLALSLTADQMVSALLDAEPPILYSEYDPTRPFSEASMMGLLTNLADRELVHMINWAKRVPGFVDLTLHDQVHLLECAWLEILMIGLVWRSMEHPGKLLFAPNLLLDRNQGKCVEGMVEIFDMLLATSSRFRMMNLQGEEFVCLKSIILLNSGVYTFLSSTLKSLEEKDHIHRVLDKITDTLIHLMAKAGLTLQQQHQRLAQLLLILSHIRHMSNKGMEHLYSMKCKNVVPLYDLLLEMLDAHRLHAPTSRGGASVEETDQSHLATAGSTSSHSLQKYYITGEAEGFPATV

Vasopressin V1a receptor = Vasopressin V1a receptor (Homo sapiens, UniProt P37288)
[1] = target: T2, Alpha-1A adrenergic receptor (Homo sapiens, UniProt P35348); assay type: functional, cell-based
T2 sequence (P35348 whole entry): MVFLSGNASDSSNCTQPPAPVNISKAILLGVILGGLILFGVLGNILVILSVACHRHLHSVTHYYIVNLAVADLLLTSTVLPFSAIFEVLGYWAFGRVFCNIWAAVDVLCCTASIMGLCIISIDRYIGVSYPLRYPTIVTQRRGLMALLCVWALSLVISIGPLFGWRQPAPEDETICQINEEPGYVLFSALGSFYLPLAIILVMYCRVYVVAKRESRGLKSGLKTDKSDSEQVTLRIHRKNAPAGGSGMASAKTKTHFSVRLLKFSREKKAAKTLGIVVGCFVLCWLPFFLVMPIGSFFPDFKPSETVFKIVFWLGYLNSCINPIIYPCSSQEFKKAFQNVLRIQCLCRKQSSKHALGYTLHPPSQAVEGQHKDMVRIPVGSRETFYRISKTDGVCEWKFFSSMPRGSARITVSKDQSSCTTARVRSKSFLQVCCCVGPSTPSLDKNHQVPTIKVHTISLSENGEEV

Adenosine receptor A1 = target: T3, Adenosine receptor A1 (Homo sapiens, UniProt P30542)
T3 sequence (P30542 whole entry): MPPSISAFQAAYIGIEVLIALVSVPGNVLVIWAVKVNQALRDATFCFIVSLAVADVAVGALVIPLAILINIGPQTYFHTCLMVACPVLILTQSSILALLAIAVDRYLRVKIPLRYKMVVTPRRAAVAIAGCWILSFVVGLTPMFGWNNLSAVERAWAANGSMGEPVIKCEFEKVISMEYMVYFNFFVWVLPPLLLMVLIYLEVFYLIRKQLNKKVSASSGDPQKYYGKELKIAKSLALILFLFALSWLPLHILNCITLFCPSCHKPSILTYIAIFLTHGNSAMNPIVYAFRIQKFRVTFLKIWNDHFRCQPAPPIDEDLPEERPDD

[2] = target: Sodium-dependent noradrenaline transporter (Homo sapiens, UniProt P23975)
[3] = target: Beta-2 adrenergic receptor (Homo sapiens, UniProt P07550)
[4] = target: T4, Alpha-2A adrenergic receptor (Homo sapiens, UniProt P08913); assay type: functional, cell-based
T4 sequence (P08913 whole entry): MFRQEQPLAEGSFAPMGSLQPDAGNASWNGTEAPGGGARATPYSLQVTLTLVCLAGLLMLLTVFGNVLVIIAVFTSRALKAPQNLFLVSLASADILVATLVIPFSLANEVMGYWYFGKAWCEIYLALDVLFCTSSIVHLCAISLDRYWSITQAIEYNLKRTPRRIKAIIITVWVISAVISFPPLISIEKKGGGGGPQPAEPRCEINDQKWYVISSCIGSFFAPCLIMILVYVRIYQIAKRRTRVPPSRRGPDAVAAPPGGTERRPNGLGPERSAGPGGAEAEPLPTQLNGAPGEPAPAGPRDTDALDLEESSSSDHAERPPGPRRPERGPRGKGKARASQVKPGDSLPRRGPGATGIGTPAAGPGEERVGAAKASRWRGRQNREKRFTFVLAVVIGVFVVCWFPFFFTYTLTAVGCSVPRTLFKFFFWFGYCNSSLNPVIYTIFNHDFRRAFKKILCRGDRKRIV

Mu-type opioid receptor = Mu-type opioid receptor (Homo sapiens, UniProt P35372)
Further: assay procedure not described here.

Vasopressin V1a receptor, sequence (P37288 whole entry): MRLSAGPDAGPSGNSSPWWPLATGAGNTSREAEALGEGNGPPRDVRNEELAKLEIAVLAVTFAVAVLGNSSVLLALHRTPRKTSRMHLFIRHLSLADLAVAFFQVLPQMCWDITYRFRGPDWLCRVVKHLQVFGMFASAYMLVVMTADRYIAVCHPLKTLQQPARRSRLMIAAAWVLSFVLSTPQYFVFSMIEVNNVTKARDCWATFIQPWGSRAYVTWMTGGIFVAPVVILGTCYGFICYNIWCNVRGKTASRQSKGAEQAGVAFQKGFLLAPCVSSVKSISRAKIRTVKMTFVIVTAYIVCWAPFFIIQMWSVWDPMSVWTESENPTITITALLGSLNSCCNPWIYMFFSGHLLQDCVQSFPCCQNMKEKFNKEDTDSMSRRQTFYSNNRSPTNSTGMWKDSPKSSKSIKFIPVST
Motilin receptor, sequence (O43193 whole entry): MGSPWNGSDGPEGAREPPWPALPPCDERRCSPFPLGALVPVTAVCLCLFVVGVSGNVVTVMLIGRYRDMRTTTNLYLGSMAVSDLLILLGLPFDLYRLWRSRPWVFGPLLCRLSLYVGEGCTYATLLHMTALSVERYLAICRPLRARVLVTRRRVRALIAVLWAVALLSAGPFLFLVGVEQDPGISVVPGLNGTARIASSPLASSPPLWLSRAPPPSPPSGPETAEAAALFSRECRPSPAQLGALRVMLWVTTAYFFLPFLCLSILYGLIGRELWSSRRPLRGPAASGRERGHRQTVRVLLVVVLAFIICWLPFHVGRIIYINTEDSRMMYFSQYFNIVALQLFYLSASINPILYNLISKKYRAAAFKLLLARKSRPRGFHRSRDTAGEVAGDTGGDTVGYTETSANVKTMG
Beta-2 adrenergic receptor, sequence (P07550 whole entry): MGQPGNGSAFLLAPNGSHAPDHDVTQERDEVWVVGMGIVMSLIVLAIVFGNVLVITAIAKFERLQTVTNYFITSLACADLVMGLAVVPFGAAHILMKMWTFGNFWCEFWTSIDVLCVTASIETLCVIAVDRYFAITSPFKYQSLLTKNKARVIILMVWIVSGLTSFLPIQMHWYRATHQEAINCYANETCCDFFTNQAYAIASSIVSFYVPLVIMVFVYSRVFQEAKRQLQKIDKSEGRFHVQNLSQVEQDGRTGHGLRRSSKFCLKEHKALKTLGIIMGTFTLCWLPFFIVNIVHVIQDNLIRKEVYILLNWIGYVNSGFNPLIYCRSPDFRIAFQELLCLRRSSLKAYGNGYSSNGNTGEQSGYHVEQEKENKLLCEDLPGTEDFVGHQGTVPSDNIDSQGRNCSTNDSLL
Sodium-dependent noradrenaline transporter, sequence (P23975 whole entry): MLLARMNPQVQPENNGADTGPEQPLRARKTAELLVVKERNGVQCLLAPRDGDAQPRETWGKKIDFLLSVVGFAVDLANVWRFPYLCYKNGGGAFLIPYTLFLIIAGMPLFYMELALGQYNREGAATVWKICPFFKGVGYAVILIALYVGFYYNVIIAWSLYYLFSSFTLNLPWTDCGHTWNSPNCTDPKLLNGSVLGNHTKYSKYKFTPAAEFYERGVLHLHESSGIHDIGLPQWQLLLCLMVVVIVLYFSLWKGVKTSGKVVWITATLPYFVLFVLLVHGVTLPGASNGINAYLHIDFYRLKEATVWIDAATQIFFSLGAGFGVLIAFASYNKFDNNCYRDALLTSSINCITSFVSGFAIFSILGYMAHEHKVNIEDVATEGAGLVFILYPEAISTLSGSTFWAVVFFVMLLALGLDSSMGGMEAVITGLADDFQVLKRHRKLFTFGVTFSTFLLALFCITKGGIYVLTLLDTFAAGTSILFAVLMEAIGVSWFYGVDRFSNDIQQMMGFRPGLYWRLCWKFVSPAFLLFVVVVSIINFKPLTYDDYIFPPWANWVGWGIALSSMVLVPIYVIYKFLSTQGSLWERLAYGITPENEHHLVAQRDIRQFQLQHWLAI
Mu-type opioid receptor, sequence (P35372 whole entry): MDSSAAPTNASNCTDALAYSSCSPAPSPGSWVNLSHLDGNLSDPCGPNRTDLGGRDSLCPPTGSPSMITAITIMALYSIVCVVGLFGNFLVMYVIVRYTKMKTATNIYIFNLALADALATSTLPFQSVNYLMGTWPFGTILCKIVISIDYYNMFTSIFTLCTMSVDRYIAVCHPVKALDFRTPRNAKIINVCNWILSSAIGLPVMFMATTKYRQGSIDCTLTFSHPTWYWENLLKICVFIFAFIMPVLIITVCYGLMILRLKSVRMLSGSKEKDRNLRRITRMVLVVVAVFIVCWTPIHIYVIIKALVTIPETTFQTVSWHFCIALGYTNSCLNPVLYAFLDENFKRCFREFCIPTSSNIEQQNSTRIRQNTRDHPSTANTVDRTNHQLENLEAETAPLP

| SMILES | AC50 (Motilin receptor) | AC50 (Estrogen receptor) | AC50 (Vasopressin V1a receptor) | AC50 [1] | AC50 (Adenosine receptor A1) | AC50 [2] | AC50 [3] | AC50 [4] | AC50 (Mu-type opioid receptor) |
| --- | --- | --- | --- | --- | --- | --- | --- | --- | --- |
| Clc1ccc(CCCOCCCN2CCCCC2)cc1 [PITOLISANT] | > 30 µM | > 30 µM | > 30 µM | > 30 µM | > 30 µM | 13 µM | – | – | – |
| C=CCN1CCCC1CNC(=O)c1cc(S(N)(=O)=O)cc(OC)c1OC (stereo unspecified) [VERALIPRIDE] | > 30 µM | > 30 µM | > 30 µM | > 30 µM | > 30 µM | > 30 µM | > 30 µM | 26 µM | – |
| CCOC(=O)[N-]c1cn(N2CCOCC2)n[o+]1 [MOLSIDOMINE] | > 30 µM | > 30 µM | > 30 µM | > 30 µM | > 30 µM | > 30 µM | > 30 µM | > 30 µM | – |
| CO/N=C(\C(=O)N[C@@H]1C(=O)N2C(C(=O)O)=C(CSc3nnnn3C)CS[C@H]12)c1csc(N)n1 [CEFMENOXIME] | > 30 µM | > 30 µM | > 30 µM | > 30 µM | > 30 µM | > 30 µM | – | > 30 µM | – |
| CCC(C(=O)O)c1ccc(N2Cc3ccccc3C2=O)cc1 (stereo unspecified) [INDOBUFEN] | > 30 µM | > 30 µM | > 30 µM | 5.3 µM | > 30 µM | > 30 µM | > 30 µM | > 30 µM | – |
| Cc1ccc(-n2nccn2)c(C(=O)N2CCN(c3nc4cc(Cl)ccc4o3)CC[C@H]2C)c1 [SUVOREXANT] | > 30 µM | > 30 µM | > 30 µM | > 30 µM | > 30 µM | > 30 µM | > 30 µM | > 30 µM | – |
| Cn1c(=O)c2c(ncn2CC2OCCO2)n(C)c1=O [DOXOFYLLINE] | > 30 µM | – | – | > 30 µM | > 30 µM | > 30 µM | > 30 µM | > 30 µM | – |
| CNC(C)CCC=C(C)C (stereo unspecified) [ISOMETHEPTENE] | > 30 µM | – | > 30 µM | – | > 30 µM | > 30 µM | > 30 µM | – | – |
| CCOC(=O)[C@H](CCc1ccccc1)N[C@@H](C)C(=O)N1C(=O)N(C)C[C@H]1C(=O)O | > 30 µM | > 30 µM | > 30 µM | > 30 µM | > 30 µM | > 30 µM | > 30 µM | > 30 µM | – |
| C/C(O)=C(\C#N)C(=O)Nc1ccc(C(F)(F)F)cc1 [TERIFLUNOMIDE] | > 30 µM | – | > 30 µM | 21 µM | > 30 µM | > 30 µM | – | > 30 µM | > 30 µM |
| CCOC(=O)OC(C)OC1=C(C(=O)Nc2ccccn2)N(C)S(=O)(=O)c2ccccc21 (stereo unspecified) [AMPIROXICAM] | > 30 µM | > 30 µM | – | > 30 µM | > 30 µM | > 30 µM | > 30 µM | > 30 µM | – |
| CC(CC(c1ccccc1)c1ccccc1)NC(C)(C)C (stereo unspecified) [TERODILINE] | > 30 µM | > 30 µM | > 30 µM | 12 µM | > 30 µM | > 30 µM | > 30 µM | > 30 µM | – |
| CC(=O)OCC(=O)[C@@]12N=C(C)O[C@@H]1C[C@H]1[C@@H]3CCC4=CC(=O)C=C[C@]4(C)[C@H]3[C@@H](O)C[C@@]12C [DEFLAZACORT] | > 30 µM | > 30 µM | > 30 µM | > 30 µM | > 30 µM | > 30 µM | > 30 µM | > 30 µM | – |
| COc1ccc(-c2ccc3cc(C(=O)O)ccc3c2)cc1C12CC3CC(CC(C3)C1)C2 | > 30 µM | – | > 30 µM | > 30 µM | > 30 µM | > 30 µM | > 30 µM | > 30 µM | – |
| CCN1CCN(C(=O)N[C@@H](C(=O)N[C@@H]2C(=O)N3C(C(=O)O)=C(CSc4nnnn4C)CS[C@H]23)c2ccc(O)cc2)C(=O)C1=O [CEFOPERAZONE] | > 30 µM | > 30 µM | > 30 µM | – | > 30 µM | > 30 µM | – | > 30 µM | – |
| Nc1nc(N)nc(-c2cc(Cl)ccc2Cl)n1 [IRSOGLADINE] | > 30 µM | – | – | > 30 µM | > 30 µM | > 30 µM | > 30 µM | > 30 µM | – |
| CC(=O)O[C@H]1C[C@@H]2CC[C@@H]3[C@H](CC[C@@]4(C)[C@H]3C[C@H]([N+]3(C)CCCCC3)[C@@H]4OC(C)=O)[C@@]2(C)C[C@@H]1N1CCCCC1 [VECURONIUM] | > 30 µM | > 30 µM | – | > 30 µM | > 30 µM | > 30 µM | > 30 µM | > 30 µM | – |
| CCC1(CC)C(=O)NCC(C)C1=O (stereo unspecified) [METHYPRYLON] | > 30 µM | > 30 µM | > 30 µM | – | > 30 µM | > 30 µM | – | > 30 µM | – |
| CC(C)(C)C(=O)Oc1ccc(S(=O)(=O)Nc2ccccc2C(=O)NCC(=O)O)cc1 | > 30 µM | > 30 µM | > 30 µM | – | > 30 µM | > 30 µM | > 30 µM | > 30 µM | – |
| CCN(CC)C(=O)N[C@H]1C[C@@H]2c3cccc4[nH]cc(c34)C[C@H]2N(C)C1 [TERGURIDE] | > 30 µM | – | > 30 µM | 1.1 µM | > 30 µM | > 30 µM | – | 0.018 µM | – |
| NCC(=O)CCC(=O)O [AMINOLEVULINIC ACID] | > 30 µM | – | > 30 µM | > 30 µM | > 30 µM | – | – | > 30 µM | > 30 µM |
| CC(C)OC(=O)CCC/C=C\C[C@@H]1[C@@H](CC[C@@H](O)CCc2ccccc2)[C@H](O)C[C@@H]1O [LATANOPROST] | > 30 µM | > 30 µM | > 30 µM | – | > 30 µM | > 30 µM | – | > 30 µM | – |
| CN1C(=O)C(O)N=C(c2ccccc2Cl)c2cc(Cl)ccc21 (stereo unspecified) [LORMETAZEPAM] | > 30 µM | > 30 µM | > 30 µM | > 30 µM | > 30 µM | > 30 µM | > 30 µM | – | – |
| O=C(O)/C=C/c1ccc(Cn2ccnc2)cc1 [OZAGREL] | > 30 µM | – | > 30 µM | – | > 30 µM | – | – | > 30 µM | – |
| CC(C)C(=O)c1c(C(C)C)nn2ccccc12 [IBUDILAST] | > 30 µM | – | > 30 µM | > 30 µM | 20 µM | > 30 µM | > 30 µM | > 30 µM | – |
| O=C(NCCNCC(O)COc1ccc(O)cc1)N1CCOCC1 (stereo unspecified) [XAMOTEROL] | > 30 µM | – | > 30 µM | – | > 30 µM | > 30 µM | – | > 30 µM | – |
| COc1ccc(CCN(C)CCCC(C#N)(c2cc(OC)c(OC)c(OC)c2)C(C)C)cc1OC (stereo unspecified) [GALLOPAMIL] | > 30 µM | – | > 30 µM | > 30 µM | > 30 µM | > 30 µM | > 30 µM | 25 µM | – |
